These are literature values, as cited in patent publication US20090018199A1, “Methods of Administering 3, 3, 14, 14 Tetramethyl Hexadecane 1, 16 Dioic Acid” (SYNDROME X LTD., priority 2003, published 2009).

The test system of this series is patients. Particulars: follow-up 15 years total, patients randomized to niacin.

Consider `O=C(O)c1cccnc1` [Niacin, niacin], for which the “decrease in all-cause mortality” value is on record as 11%.
